Laboratory results published in ChEMBL document CHEMBL4196089, “Design, synthesis, biological evaluation and in vivo testing of dual phosphodiesterase 5 (PDE5) and histone deacetylase 6 (HDAC6)-selective inhibitors for the treatment of Alzheimer's disease” (Eur J Med Chem, 2018).

What was measured:
[1] = molecular target: Histone deacetylase 2 (Homo sapiens, UniProt Q92769); experiment: Inhibition of full length human recombinant C-terminal His-tagged HDAC2 expressed in baculovirus infected sf9 cells using fluorogenic HDAC substrate 3 after 30 mins by fluorescence assay
Histone deacetylase 2, sequence (Q92769 whole entry): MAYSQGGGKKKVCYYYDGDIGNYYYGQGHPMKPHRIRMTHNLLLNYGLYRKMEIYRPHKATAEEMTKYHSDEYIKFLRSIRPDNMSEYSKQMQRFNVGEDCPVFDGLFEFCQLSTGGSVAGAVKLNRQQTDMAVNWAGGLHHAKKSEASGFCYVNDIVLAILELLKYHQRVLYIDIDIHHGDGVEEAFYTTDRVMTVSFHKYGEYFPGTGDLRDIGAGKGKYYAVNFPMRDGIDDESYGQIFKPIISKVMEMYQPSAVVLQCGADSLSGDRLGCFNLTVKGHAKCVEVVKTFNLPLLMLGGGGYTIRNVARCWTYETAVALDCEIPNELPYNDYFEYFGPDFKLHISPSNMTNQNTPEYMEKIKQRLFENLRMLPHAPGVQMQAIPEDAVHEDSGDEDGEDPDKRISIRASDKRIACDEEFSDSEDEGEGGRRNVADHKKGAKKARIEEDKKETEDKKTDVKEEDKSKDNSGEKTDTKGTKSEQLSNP

[2] = molecular target: Histone deacetylase 1 (Homo sapiens, UniProt Q13547); experiment: Inhibition of full length human recombinant C-terminal FLAG/His-tagged HDAC1 expressed in baculovirus infected sf9 cells using fluorogenic HDAC substrate 3 after 30 mins by fluorescence assay
Histone deacetylase 1, sequence (Q13547 whole entry): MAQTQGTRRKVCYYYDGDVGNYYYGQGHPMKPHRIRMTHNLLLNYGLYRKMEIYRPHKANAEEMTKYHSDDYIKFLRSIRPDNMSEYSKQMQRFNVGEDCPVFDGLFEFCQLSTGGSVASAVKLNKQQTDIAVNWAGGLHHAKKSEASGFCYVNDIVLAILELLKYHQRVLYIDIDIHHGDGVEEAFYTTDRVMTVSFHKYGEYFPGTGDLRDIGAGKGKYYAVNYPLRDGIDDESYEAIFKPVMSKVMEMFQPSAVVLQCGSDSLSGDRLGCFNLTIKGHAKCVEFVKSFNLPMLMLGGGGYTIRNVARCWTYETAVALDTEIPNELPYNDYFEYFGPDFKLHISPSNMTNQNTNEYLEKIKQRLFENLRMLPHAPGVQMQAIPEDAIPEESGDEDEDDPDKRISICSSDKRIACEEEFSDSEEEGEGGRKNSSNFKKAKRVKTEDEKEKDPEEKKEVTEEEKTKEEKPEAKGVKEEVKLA

[3] = molecular target: cGMP-specific 3',5'-cyclic phosphodiesterase (Homo sapiens, UniProt O76074); experiment: Inhibition of full length human recombinant N-terminal GST-tagged PDE5A1 expressed in baculovirus infected sf9 cells using cGMP as substrate after 30 mins by fluorescence assay
[4] = molecular target: T1, Protein deacetylase HDAC6 (Homo sapiens, UniProt Q9UBN7); experiment: Inhibition of full length human recombinant N-terminal GST-tagged HDAC6 expressed in baculovirus infected sf9 cells using fluorogenic HDAC substrate 3 after 30 mins by fluorescence assay
T1 sequence (Q9UBN7 whole entry): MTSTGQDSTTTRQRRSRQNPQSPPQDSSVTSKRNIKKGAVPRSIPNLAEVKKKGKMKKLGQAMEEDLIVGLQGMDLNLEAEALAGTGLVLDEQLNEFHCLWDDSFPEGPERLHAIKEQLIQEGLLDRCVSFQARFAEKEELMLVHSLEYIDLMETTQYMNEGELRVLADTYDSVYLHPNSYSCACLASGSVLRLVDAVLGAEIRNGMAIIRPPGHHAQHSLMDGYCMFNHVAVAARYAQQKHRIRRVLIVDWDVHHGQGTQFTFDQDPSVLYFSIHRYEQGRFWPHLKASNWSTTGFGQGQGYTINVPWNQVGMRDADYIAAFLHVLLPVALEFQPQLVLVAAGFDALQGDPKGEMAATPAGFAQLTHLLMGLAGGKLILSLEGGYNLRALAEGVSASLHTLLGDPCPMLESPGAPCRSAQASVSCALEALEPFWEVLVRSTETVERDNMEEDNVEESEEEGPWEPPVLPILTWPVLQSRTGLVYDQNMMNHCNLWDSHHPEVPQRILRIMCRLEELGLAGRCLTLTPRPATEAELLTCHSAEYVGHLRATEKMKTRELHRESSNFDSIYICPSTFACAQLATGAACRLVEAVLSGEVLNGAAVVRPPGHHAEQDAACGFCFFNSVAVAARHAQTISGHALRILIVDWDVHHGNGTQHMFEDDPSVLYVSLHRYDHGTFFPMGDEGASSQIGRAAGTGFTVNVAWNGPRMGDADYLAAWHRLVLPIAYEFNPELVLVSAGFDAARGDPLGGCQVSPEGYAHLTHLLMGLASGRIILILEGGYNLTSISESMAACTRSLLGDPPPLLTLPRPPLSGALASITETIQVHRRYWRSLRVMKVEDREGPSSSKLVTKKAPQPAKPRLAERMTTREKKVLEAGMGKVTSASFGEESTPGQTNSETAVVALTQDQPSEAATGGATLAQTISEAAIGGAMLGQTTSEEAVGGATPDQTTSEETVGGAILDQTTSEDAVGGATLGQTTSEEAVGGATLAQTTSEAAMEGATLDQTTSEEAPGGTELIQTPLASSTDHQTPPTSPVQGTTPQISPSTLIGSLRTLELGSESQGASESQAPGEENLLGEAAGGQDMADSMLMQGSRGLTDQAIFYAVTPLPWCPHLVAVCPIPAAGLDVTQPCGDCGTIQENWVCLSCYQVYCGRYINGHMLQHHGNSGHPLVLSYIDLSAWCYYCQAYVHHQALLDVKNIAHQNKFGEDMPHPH

[5] = cells; settings: Homo sapiens, SH-SY5Y, 2 h, read-out: FC
[6] = cells; settings: Homo sapiens, SH-SY5Y, 2 h, read-out: FC; remark: listed apart in the source
[7] = Cytotoxicity against human THLE2 cells after 72 hrs by vialight cell proliferation assay; assay type: cell-based, THLE-2; settings: read-out: LC50
[8] = cells; settings: Homo sapiens, SH-SY5Y, 2 h, read-out: FC; remark: listed apart in the source
[9] = Effective permeability of the compound at 50 uM after 18 hrs by UV spectroscopy based PAMPA; assay type: ADME; settings: read-out: Peff
[10] = Inhibition of class-1 HDAC in human SH-SY5Y cells assessed as induction of AcH3K9 level at 500 nM after 0.5 to 2 hrs by Western blot analysis; assay type: cell-based; settings: 0.5 µM
[11] = molecular target: cGMP-inhibited 3',5'-cyclic phosphodiesterase 3A (Homo sapiens, UniProt Q14432); experiment: Inhibition of PDE3A (unknown origin) using FAM-cGMP as substrate by fluorescence assay
cGMP-inhibited 3',5'-cyclic phosphodiesterase 3A, sequence (Q14432 whole entry, the tested form may be a part): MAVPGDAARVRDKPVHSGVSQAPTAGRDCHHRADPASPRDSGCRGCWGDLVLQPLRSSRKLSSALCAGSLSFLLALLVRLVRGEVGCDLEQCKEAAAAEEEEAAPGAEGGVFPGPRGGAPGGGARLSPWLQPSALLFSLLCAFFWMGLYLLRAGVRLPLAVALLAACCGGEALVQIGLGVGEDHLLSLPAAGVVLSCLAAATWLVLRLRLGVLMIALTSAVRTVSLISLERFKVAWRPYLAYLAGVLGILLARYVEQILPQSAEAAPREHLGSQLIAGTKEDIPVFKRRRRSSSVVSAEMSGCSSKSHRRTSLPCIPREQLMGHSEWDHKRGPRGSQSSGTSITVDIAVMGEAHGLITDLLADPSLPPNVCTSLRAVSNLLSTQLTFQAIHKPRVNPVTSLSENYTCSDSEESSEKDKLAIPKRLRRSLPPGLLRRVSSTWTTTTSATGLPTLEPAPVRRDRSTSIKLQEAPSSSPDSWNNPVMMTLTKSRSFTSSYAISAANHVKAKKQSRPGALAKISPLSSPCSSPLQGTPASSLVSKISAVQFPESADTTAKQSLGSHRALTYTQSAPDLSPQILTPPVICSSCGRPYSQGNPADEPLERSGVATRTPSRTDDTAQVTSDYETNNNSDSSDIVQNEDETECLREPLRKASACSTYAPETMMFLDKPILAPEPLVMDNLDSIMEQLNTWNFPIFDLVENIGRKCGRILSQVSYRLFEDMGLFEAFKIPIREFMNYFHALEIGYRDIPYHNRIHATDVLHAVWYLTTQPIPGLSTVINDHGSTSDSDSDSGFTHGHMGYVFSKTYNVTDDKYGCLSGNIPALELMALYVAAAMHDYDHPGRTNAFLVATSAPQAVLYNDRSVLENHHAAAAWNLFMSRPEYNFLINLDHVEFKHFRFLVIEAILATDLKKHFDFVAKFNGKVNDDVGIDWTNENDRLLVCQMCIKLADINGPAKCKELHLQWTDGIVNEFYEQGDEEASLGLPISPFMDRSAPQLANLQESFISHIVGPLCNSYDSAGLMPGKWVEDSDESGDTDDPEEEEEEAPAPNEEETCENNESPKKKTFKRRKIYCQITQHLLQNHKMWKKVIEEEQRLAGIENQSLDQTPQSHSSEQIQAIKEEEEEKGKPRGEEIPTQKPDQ

[12] = molecular target: Histone deacetylase 3/Nuclear receptor corepressor 2 (HDAC3/NCoR2) (Homo sapiens, UniProt O15379); experiment: Inhibition of full length human recombinant C-terminal His-tagged HDAC3/N-terminal GST-tagged NCOR2 (95 to 489 residues) expressed in baculovirus infected sf9 cells using fluorogenic HDAC substrate 3 after 30 mins by fluorescence assay
Histone deacetylase 3/Nuclear receptor corepressor 2 (HDAC3/NCoR2), sequence (O15379 whole entry, the tested form may be a part): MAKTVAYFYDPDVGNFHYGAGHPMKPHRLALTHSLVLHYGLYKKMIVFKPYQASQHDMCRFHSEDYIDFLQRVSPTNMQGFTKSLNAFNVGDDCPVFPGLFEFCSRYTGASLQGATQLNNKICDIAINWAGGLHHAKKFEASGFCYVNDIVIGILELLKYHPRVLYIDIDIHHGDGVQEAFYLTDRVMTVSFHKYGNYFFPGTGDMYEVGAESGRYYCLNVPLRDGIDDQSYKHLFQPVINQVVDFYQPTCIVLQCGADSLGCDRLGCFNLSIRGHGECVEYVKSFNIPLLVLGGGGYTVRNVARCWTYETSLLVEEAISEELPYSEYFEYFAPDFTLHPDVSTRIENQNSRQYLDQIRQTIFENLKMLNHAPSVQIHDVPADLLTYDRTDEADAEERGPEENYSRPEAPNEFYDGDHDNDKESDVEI
Histone deacetylase 3/Nuclear receptor corepressor 2 (HDAC3/NCoR2), sequence (Q9Y618 whole entry, further chain, the tested form may be a part): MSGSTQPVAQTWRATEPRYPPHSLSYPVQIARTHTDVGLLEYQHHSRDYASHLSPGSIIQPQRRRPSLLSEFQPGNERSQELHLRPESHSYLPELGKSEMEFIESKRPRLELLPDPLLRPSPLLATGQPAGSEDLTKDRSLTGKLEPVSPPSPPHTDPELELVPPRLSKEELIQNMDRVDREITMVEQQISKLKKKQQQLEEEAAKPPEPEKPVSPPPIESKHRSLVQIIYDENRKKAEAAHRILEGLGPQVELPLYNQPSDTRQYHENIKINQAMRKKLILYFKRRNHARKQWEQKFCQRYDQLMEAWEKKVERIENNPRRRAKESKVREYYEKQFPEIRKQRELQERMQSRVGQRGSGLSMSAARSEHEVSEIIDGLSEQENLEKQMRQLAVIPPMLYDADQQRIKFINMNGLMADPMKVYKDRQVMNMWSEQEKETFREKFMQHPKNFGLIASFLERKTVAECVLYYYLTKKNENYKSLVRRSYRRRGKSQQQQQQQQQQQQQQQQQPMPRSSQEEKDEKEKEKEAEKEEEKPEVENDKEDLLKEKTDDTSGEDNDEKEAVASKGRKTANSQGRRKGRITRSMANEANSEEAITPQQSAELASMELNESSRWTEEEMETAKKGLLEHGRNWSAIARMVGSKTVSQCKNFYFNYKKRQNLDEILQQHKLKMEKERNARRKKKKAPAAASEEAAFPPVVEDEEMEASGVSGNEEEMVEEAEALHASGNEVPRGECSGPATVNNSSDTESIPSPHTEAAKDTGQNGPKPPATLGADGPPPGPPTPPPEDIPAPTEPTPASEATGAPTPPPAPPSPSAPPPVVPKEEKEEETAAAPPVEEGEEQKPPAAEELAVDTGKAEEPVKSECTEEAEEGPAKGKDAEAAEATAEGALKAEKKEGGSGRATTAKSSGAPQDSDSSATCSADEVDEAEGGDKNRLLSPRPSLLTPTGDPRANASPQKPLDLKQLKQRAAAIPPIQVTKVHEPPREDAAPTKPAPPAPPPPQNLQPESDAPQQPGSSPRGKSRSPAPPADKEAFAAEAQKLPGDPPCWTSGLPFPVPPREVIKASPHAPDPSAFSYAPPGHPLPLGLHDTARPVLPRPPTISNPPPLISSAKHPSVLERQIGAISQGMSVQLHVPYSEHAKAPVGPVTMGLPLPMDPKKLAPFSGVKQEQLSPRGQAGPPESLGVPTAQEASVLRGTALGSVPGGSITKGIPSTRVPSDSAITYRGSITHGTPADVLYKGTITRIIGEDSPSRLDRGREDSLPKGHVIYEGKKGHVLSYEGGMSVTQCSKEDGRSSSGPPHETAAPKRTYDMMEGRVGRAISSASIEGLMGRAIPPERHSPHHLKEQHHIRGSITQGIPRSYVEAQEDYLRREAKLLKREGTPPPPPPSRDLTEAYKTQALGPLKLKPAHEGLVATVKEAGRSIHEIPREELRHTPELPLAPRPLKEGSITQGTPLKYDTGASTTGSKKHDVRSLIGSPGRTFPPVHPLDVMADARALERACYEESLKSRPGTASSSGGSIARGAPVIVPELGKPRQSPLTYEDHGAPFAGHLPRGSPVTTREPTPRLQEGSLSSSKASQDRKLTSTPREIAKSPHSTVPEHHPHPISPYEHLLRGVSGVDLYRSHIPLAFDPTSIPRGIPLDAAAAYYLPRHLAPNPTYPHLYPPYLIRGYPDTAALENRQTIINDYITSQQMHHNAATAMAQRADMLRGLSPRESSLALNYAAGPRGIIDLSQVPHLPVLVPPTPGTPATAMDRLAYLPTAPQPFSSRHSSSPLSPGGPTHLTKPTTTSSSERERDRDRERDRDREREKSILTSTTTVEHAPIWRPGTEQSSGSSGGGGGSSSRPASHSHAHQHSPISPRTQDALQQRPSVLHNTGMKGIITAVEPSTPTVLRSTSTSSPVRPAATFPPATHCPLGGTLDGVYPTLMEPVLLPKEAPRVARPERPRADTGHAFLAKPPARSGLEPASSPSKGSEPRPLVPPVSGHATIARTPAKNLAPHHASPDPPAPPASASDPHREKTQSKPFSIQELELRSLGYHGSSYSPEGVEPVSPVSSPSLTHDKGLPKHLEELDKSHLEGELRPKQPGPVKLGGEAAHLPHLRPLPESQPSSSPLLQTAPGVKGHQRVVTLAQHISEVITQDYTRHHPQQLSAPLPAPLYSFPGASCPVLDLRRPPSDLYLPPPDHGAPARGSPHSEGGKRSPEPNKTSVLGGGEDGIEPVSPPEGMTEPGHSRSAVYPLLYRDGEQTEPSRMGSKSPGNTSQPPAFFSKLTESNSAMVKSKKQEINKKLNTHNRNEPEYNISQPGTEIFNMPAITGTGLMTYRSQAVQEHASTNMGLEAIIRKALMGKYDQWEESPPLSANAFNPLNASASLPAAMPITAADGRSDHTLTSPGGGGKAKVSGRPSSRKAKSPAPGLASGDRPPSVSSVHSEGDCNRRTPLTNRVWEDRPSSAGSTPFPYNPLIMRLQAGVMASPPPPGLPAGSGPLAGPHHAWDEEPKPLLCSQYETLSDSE

In the case of `CCCc1nn(C)c2c(=O)[nH]c(-c3cc(Nc4ccc(C(=O)NO)cc4)ccc3OCC)nc12`, the IC50 [1] is reported as > 20 µM, the IC50 [2] is reported as 0.49 µM and the IC50 [3] is reported as 0.002 µM. It also gave an IC50 [4] of 0.066 µM.

In the case of `CCCc1nn(C)c2c(=O)[nH]c(-c3cc(Cc4ccc(C(=O)NO)c(F)c4)ccc3OCC)nc12`, the IC50 [1] is reported as > 20 µM, the fold induction at 1 µM [5] is reported as 1.4 and the fold induction at 0.1 µM [6] is reported as 2. The IC50 [2] was 1.11 µM, the IC50 [3] was 0.031 µM and the CC50 at 72 h [7] was 3.51 µM. For the same compound, the fold induction at 0.5 µM [8] was 2.7, the IC50 [4] was 0.142 µM and the Papp at 18 h, 50 µM [9] was 28.4 nm/s.

With `CCCc1nn(C)c2c(=O)[nH]c(-c3cc(S(=O)(=O)N4CCN(C)CC4)ccc3OCC)nc12` the CC50 at 72 h [7] was > 100 µM.

Work on `CCCc1nn(C)c2c(=O)[nH]c(-c3cc(C(O)c4ccc(C(=O)NO)cc4)ccc3OCC)nc12` (stereo not drawn) yielded an IC50 [1] of 1.11 µM, an IC50 [2] of 0.335 µM and an IC50 [3] of 0.01 µM. The IC50 [4] was 0.089 µM.

In the case of `CCCc1nn(C)c2c(=O)[nH]c(-c3cc(-c4ccc(C(=O)NO)cc4)ccc3OCC)nc12`, the IC50 [1] is reported as 2.55 µM, the fold induction at 1 µM [5] is reported as 3.6 and the fold induction at 0.1 µM [6] is reported as 0.8. For the same compound, the IC50 [2] was 0.326 µM, the IC50 [3] was 0.001 µM and the CC50 at 72 h [7] was 8.83 µM. It also gave a fold induction at 0.5 µM [8] of 1.7, an IC50 [4] of 0.042 µM and a Papp at 18 h, 50 µM [9] of 26.8 nm/s.

In the case of `CCCc1nn(C)c2c(=O)[nH]c(-c3cc(Cc4ccc(C(=O)NO)cc4F)ccc3OCC)nc12`, the IC50 [1] is reported as 14.6 µM, the fold induction at 1 µM [5] is reported as 1.6 and the fold induction at 0.1 µM [6] is reported as 0.9. It also gave an IC50 [2] of 2.03 µM, an IC50 [3] of 0.149 µM and a CC50 at 72 h [7] of 16.5 µM. For the same compound, the fold induction at 0.5 µM [8] was 1.1, the IC50 [4] was 0.087 µM and the Papp at 18 h, 50 µM [9] was 37 nm/s.

`CCCc1nc(C)c2c(=O)[nH]c(-c3cc(Cc4ccc(C(=O)NO)cc4)ccc3OCC)nn12` gave an IC50 [1] of 5.19 µM, a fold induction at 1 µM [5] of 1.3 and a fold induction at 0.1 µM [6] of 0.4. For the same compound, the IC50 [2] was 1.83 µM, the IC50 [3] was 0.013 µM and the CC50 at 72 h [7] was 26.7 µM. The fold induction at 0.5 µM [8] was 0.9, the IC50 [4] was 0.256 µM and the Papp at 18 h, 50 µM [9] was 18.6 nm/s.

With `CCCc1nn(C)c2c(=O)[nH]c(-c3cc(-c4ccc(CC(=O)NO)cc4)ccc3OCC)nc12` the IC50 [1] was > 20 µM, the fold induction at 1 µM [5] was 1.2 and the fold induction at 0.1 µM [6] was 0.6. The IC50 [2] was > 20 µM, the IC50 [3] was 0.01 µM and the CC50 at 72 h [7] was 15.4 µM. For the same compound, the fold induction at 0.5 µM [8] was 0.8, the IC50 [4] was 0.815 µM and the Papp at 18 h, 50 µM [9] was 19.7 nm/s.

In the case of `CCCc1nc(C)c2c(=O)[nH]c(-c3cc(S(=O)(=O)N4CCN(CC)CC4)ccc3OCC)nn12`, the CC50 at 72 h [7] is reported as > 100 µM and the Papp at 18 h, 50 µM [9] is reported as 21.4 nm/s.

With `CN1CCc2c(c3ccccc3n2Cc2ccc(C(=O)NO)cc2)C1` [TUBASTATIN A] the “inhibition (INH)” value [10] was “Not Active”, the CC50 at 72 h [7] was […] and the Papp at 18 h, 50 µM [9] was 17.7 nm/s.

With `CCCc1nc(C)c2c(=O)[nH]c(-c3cc(Cc4ccc(C(=O)NO)s4)ccc3OCC)nn12` the IC50 [1] was 4.39 µM, the fold induction at 1 µM [5] was 0.8 and the fold induction at 0.1 µM [6] was 0.7. For the same compound, the IC50 [2] was 0.793 µM, the IC50 [3] was 0.003 µM and the CC50 at 72 h [7] was 6.94 µM. It also gave a fold induction at 0.5 µM [8] of 0.9, an IC50 [4] of 0.098 µM and a Papp at 18 h, 50 µM [9] of 16 nm/s.

`CCCc1nn(C)c2c(=O)[nH]c(-c3cc(CC4CC(C(=O)NO)C4)ccc3OCC)nc12` (stereo not drawn) showed an IC50 [11] of 1.8 µM.

With `CCCc1nn(C)c2c(=O)[nH]c(-c3cc([C@H]4CC[C@H](C(=O)NO)CC4)ccc3OCC)nc12` the IC50 [1] was > 20 µM, the IC50 [2] was 10.2 µM and the IC50 [3] was 0.19 µM. It also gave an IC50 [4] of 5.44 µM.

`CCCc1nn(C)c2c(=O)[nH]c(-c3cc(Cc4ccc(C(=O)NO)cc4)ccc3OCC)nc12` gave an IC50 [1] of 3.86 µM, a fold induction at 1 µM [5] of 6.5 and a fold induction at 0.1 µM [6] of 1.1. For the same compound, the IC50 [12] was 1.35 µM, the IC50 [2] was 0.673 µM and the IC50 [3] was 0.048 µM. It also gave a CC50 at 72 h [7] of 14.2 µM, a fold induction at 0.5 µM [8] of 3.2 and an IC50 [4] of 0.062 µM. The Papp at 18 h, 50 µM [9] was 21.6 nm/s.
